# ChEMBL document CHEMBL1201862, “PubChem BioAssay data set” (2004)
# Activity calls are given as the source filed them.
# Experiments:
# SUMO-activating enzyme [1] = target: T1, SUMO-activating enzyme (Homo sapiens, UniProt Q9UBT2); experiment: SUMOylation inhibitor hit validation, confirmation, SUMOylation inhibitor project, biochemical, AlphaScreen (AID 2018); assay type: functional
# SUMO-activating enzyme [2] = target: T1, SUMO-activating enzyme; experiment: inhibitors of in vitro SUMOylation cascade, primary screen, biochemical, HTRF, uHTS (AID 2006); assay type: protein-complex assay
# [3] = Luminescence Cell-Based Dose Confirmation HTS to Identify Activators of 5'UTR Stem-Loop Driven Alpha-Synuclein mRNA Translation in H4 Neuroglioblastoma Cells. [Related pubchem assays: 1829 (Project Summary), 1814 (Primary HTS)]; assay type: functional
# [4] = target: Intestinal-type alkaline phosphatase (Homo sapiens, UniProt P09923); experiment: human IAP inhibitors, dose response, biochemical, luminescent, uHTS hits, set 2 (AID 488793); assay type: functional
# Jurkat = experiment: antigen receptor-induced NF-kB inhibitors, dose response, Jurkat, luciferase reporter, luminescence, B- and T-cell (AID 489004); assay type: functional, cell-based; settings: Homo sapiens;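 further: NF-kB luciferase reporter Jurkat cells stimulated with PMA plus ionomycin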
# [5] = cytotoxicity in HEK-293T NF-kB-Luc cells, dose response, cytotoxicity control for B/T-cell NF-kB inhibitor project, cell-based, uHTS hits (AID 489019); assay type: functional;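 further: IC50 reflects cytotoxicity as loss of cell viability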
# Streptokinase A = target: T2, Streptokinase A (Streptococcus pyogenes serotype M1, UniProt P10520); experiment: S. pyogenes streptokinase expression inhibitors, potency, dose response, plasminogen activation absorbance, OD405 (AID 1914); assay type: functional, Streptococcus pyogenes M1 GAS;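 further: secreted streptokinase activity via plasminogen activation per viability signal from cell pellet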
# T2 sequence (P10520 whole entry): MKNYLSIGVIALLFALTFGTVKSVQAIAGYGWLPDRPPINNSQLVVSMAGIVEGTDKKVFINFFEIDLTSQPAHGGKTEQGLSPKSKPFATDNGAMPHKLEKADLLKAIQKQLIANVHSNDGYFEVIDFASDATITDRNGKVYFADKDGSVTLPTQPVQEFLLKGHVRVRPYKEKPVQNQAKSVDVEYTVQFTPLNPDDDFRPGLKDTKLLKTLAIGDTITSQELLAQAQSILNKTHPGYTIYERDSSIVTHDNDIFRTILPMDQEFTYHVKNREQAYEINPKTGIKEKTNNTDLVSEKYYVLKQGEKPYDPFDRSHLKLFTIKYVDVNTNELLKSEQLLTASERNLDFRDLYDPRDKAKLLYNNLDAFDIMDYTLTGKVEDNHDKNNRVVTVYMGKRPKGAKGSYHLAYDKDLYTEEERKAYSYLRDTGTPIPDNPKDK
# [6] = target: 5'-AMP-activated protein kinase catalytic subunit alpha-1 (Homo sapiens, UniProt Q13131); assay type: functional
# [7] = target: Testis-specific serine/threonine-protein kinase 2 (Homo sapiens, UniProt Q96PF2); assay type: functional;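 further: part of the Navigating the Kinome panel, target entry STK22B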
# [8] = target: Tyrosine-protein kinase Lck (Homo sapiens, UniProt P06239); assay type: functional;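 further: lck was assayed as one member of a kinase panel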
# [9] = target: Death-associated protein kinase 3 (Homo sapiens, UniProt O43293); assay type: functional;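 further: measured as one member of a kinome-wide profiling panel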
# Activin receptor type-1 = Activin receptor type-1 (Homo sapiens, UniProt Q04771); experiment: Navigating the Kinome. Panel member name: ACVR1; assay type: functional
# Aurora kinase A = Aurora kinase A (Homo sapiens, UniProt O14965); assay type: functional;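 further: value from the Navigating the Kinome kinase panel profiling, panel entry STK6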
# [10] = target: Tyrosine-protein kinase BTK (Homo sapiens, UniProt Q06187); assay type: functional
# [11] = target: Fibroblast growth factor receptor 1 (Homo sapiens, UniProt P11362); assay type: functional
# [12] = target: Casein kinase I isoform alpha (Homo sapiens, UniProt P48729); assay type: functional
# [13] = target: Casein kinase I isoform gamma-1 (Homo sapiens, UniProt Q9HCP0); assay type: functional;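 further: measured as the CSNK1G1 member of a kinome profiling panel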
# [14] = target: Mitogen-activated protein kinase 9 (Homo sapiens, UniProt P45984); assay type: functional;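 further: value from a kinome panel profiling assay, MAPK9 panel entry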
# LIM domain kinase 1 = LIM domain kinase 1 (Homo sapiens, UniProt P53667); experiment: Navigating the Kinome. Panel member name: LIMK1; assay type: functional
# [15] = target: Proto-oncogene tyrosine-protein kinase ROS (Homo sapiens, UniProt P08922); assay type: functional;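 further: ROS1 tested as one member of a kinome-wide kinase panel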
# [16] = target: Homeodomain-interacting protein kinase 2 (Homo sapiens, UniProt Q9H2X6); assay type: functional;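 further: measured within a kinome-wide kinase profiling panel, HIPK2 being one panel member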
# [17] = target: High affinity nerve growth factor receptor (Homo sapiens, UniProt P04629); assay type: functional;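 further: NTRK1 tested as one member of a kinome-wide profiling panel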
# [18] = target: Mitogen-activated protein kinase 13 (Homo sapiens, UniProt O15264); assay type: functional
# [19] = target: Tyrosine-protein kinase Srms (Homo sapiens, UniProt Q9H3Y6); assay type: functional;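 further: SRMS measured as one member of a kinome-wide kinase profiling panel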
# [20] = target: MAP kinase-activated protein kinase 3 (Homo sapiens, UniProt Q16644); assay type: functional;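 further: value comes from a kinome-wide profiling panel in which MAPKAPK3 is one of the panel members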
# [21] = target: Casein kinase I isoform delta (Homo sapiens, UniProt P48730); assay type: functional;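 further: measured as one member (CSNK1D) of a kinome panel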
# [22] = target: Serine/threonine-protein kinase Nek4 (Homo sapiens, UniProt P51957); assay type: functional
# Focal adhesion kinase 1 = Focal adhesion kinase 1 (Homo sapiens, UniProt Q05397); assay type: functional;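 further: measured as one member of a kinome panel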
# [23] = target: Maternal embryonic leucine zipper kinase (Homo sapiens, UniProt Q14680); assay type: functional
# Aurora kinase B = Aurora kinase B (Homo sapiens, UniProt Q96GD4); assay type: functional
# [24] = target: Vascular endothelial growth factor receptor 3 (Homo sapiens, UniProt P35916); assay type: functional;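 further: value from a kinome-wide profiling panel, with FLT4 as the panel member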
# [25] = target: Rho-associated protein kinase 1 (Homo sapiens, UniProt Q13464); assay type: functional;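 further: measured within a broad kinome-wide panel profiling many kinases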
# [26] = target: Calcium/calmodulin-dependent protein kinase type 1 (Homo sapiens, UniProt Q14012); assay type: functional
# [27] = target: Tyrosine-protein kinase Fyn (Homo sapiens, UniProt P06241); assay type: functional
# [28] = target: Cyclin-dependent kinase 8 (Homo sapiens, UniProt P49336); experiment: Navigating the Kinome. Panel member name: CDK8; assay type: functional
# [29] = target: Receptor tyrosine-protein kinase erbB-4 (Homo sapiens, UniProt Q15303); assay type: functional;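 further: ERBB4 member of a kinome-wide kinase profiling panel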
# [30] = target: Dual specificity mitogen-activated protein kinase kinase 2 (Homo sapiens, UniProt P36507); experiment: Navigating the Kinome. Panel member name: MAP2K2; assay type: functional
# [31] = target: Inhibitor of nuclear factor kappa-B kinase subunit epsilon (Homo sapiens, UniProt Q14164); experiment: Navigating the Kinome. Panel member name: IKBKE; assay type: functional
# [32] = target: Leukocyte tyrosine kinase receptor (Homo sapiens, UniProt P29376); experiment: Navigating the Kinome. Panel member name: LTK; assay type: functional
# T1 sequence (Q9UBE0 whole entry): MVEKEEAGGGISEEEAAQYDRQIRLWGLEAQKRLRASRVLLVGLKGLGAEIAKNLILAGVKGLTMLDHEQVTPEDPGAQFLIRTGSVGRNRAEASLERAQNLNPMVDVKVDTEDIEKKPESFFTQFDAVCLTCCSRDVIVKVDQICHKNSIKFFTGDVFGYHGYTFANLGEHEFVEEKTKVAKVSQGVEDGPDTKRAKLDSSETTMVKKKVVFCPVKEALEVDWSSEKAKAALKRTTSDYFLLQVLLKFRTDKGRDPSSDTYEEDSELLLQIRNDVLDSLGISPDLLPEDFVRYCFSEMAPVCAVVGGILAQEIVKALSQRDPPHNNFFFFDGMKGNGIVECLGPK
# T1 sequence (Q9UBT2 whole entry): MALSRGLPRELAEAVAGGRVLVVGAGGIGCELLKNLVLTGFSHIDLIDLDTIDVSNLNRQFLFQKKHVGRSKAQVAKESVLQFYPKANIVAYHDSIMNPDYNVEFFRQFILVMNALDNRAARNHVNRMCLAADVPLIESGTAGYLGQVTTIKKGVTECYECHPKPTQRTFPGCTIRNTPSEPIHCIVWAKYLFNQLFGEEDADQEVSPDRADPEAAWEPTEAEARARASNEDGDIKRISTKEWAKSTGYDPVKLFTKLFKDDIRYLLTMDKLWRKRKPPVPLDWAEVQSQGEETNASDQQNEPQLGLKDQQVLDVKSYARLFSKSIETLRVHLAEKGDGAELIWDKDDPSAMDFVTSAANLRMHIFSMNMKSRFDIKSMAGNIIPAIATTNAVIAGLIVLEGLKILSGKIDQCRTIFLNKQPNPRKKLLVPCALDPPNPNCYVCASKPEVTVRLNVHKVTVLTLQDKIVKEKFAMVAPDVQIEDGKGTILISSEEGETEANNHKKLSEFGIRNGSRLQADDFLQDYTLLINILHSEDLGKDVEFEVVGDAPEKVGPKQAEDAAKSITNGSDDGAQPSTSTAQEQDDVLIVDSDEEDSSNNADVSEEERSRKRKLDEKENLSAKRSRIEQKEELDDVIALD
# Sequence of Maternal embryonic leucine zipper kinase (Q14680 whole entry): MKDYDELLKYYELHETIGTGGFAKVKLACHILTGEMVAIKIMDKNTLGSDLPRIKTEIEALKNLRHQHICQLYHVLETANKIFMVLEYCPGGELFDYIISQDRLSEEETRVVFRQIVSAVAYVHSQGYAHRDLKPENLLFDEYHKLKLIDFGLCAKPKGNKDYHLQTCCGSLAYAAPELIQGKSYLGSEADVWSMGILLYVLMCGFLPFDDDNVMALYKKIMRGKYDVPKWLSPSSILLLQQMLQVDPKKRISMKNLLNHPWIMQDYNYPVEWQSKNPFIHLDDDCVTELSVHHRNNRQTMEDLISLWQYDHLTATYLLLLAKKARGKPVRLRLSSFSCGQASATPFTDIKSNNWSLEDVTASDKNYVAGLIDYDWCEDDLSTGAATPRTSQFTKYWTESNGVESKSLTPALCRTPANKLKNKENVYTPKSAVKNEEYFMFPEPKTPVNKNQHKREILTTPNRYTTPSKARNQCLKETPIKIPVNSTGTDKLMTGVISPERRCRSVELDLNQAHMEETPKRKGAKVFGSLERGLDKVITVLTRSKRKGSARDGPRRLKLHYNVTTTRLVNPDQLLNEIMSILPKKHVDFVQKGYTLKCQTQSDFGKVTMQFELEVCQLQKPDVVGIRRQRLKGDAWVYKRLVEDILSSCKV
# Sequence of Dual specificity mitogen-activated protein kinase kinase 2 (P36507 whole entry): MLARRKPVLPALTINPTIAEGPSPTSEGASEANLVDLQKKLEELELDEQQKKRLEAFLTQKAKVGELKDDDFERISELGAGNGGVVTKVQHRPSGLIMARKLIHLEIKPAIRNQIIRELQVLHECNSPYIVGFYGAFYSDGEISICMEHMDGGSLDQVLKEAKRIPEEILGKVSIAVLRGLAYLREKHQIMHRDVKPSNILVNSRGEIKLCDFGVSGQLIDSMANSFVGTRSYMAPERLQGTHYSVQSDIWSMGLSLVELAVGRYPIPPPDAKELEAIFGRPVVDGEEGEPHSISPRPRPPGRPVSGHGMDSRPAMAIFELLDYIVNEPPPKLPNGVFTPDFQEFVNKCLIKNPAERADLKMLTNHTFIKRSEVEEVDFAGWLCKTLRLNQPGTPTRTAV
# Sequence of High affinity nerve growth factor receptor (P04629 whole entry): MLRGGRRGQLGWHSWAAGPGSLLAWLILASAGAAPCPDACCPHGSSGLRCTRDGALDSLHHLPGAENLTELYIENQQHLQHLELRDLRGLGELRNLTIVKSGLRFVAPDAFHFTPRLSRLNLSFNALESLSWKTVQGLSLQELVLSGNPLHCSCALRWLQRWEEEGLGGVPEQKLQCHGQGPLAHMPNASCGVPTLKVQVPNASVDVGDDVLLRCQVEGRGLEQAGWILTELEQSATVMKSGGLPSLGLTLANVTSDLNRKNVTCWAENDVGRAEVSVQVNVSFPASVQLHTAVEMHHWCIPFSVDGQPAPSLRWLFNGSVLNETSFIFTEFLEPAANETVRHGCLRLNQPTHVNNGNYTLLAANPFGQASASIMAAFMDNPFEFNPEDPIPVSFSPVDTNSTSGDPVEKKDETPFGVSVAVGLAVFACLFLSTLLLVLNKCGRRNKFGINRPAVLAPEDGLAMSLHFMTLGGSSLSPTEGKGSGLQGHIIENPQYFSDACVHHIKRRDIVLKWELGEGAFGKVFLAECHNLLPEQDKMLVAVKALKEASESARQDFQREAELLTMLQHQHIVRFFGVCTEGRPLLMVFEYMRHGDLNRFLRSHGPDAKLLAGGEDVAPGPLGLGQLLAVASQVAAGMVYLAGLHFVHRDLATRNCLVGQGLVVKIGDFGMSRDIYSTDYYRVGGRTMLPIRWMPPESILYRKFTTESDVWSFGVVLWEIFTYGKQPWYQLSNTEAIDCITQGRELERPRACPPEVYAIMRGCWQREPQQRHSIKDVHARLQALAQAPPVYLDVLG
# Sequence of Casein kinase I isoform gamma-1 (Q9HCP0 whole entry, canonical isoform): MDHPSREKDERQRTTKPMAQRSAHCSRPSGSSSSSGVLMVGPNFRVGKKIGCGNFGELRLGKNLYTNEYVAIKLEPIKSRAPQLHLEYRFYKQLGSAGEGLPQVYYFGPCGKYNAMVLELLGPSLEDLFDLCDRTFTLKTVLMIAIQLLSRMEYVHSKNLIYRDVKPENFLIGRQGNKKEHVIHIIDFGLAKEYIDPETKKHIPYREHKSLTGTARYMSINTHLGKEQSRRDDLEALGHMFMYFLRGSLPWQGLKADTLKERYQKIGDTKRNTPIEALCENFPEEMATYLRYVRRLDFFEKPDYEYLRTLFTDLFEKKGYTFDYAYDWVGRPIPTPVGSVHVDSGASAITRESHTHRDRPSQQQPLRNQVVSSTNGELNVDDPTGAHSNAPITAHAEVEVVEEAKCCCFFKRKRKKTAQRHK
# Sequence of Fibroblast growth factor receptor 1 (P11362 whole entry, canonical isoform): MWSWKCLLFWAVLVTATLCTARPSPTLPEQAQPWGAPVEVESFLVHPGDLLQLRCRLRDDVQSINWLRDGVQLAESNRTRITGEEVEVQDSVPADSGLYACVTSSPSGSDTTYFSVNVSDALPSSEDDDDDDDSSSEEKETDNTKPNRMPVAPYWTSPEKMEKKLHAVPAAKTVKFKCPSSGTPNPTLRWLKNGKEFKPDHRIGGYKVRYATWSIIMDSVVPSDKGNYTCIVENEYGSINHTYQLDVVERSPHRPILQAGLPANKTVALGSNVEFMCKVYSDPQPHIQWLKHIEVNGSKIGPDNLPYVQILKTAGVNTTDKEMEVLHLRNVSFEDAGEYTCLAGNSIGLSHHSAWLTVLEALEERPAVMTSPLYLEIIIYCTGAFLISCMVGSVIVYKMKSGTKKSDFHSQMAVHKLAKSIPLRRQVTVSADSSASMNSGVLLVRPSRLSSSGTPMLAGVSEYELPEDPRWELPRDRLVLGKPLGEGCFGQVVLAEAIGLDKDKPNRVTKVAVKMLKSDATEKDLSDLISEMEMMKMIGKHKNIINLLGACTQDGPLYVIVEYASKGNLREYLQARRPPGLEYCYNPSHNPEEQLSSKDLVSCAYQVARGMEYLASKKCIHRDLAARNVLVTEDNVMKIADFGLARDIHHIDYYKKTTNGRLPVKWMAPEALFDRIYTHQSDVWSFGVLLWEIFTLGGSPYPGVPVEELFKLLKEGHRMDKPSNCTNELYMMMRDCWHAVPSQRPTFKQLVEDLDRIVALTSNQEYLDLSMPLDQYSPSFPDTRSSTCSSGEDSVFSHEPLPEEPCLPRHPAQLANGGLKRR
# Sequence of Tyrosine-protein kinase Lck (P06239 whole entry): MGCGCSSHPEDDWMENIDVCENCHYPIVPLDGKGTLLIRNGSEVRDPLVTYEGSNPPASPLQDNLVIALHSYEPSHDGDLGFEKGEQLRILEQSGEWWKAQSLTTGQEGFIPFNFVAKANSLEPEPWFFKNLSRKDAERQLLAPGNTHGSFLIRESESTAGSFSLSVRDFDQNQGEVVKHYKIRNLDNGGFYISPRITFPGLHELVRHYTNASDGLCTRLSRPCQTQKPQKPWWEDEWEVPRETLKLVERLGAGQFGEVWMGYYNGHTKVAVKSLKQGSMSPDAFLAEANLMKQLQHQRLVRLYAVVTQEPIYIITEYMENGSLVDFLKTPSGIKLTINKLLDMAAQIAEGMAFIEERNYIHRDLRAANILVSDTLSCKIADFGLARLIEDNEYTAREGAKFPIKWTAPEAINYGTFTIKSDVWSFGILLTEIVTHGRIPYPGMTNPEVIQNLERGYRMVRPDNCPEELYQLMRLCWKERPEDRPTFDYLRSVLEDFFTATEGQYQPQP
# Sequence of Calcium/calmodulin-dependent protein kinase type 1 (Q14012 whole entry): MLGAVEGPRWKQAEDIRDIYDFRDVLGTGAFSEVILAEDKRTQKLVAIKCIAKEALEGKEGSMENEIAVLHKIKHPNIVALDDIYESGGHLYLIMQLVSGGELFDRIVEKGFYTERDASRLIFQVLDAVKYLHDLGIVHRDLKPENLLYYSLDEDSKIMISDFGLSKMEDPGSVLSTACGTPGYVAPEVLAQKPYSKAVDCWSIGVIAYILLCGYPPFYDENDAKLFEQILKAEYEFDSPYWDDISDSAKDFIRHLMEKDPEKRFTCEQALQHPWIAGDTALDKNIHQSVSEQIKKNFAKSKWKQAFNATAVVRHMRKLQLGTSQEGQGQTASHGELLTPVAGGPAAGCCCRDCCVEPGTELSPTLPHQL
structure (smiles),measurement,setting,value
CCC(C)n1c(NC(=O)c2ccccc2)c(C#N)c2nc3ccccc3nc21 (centres undefined),IC50,SUMO-activating enzyme [1],3.51 µM (active)
same,IC50,SUMO-activating enzyme [2],8.4 µM (active)
CCN1/C(=C\c2ccc3ccccc3[n+]2CC)Sc2cc(C)ccc21,EC50,[3],15.7 µM (active)
same,IC50,[4],23.5 µM (active)
same,IC50,Jurkat,15.5 µM (active)
same,IC50,[5],> 80 µM (inactive)
CCCCCCCCCCOC(=O)C[n+]1c(COc2ccc(C)cc2)n(C)c2ccccc21,EC50,Streptokinase A,> 150 µM (not active)
CN1CCN(c2nc(C3=C(c4c[nH]c5ccccc45)C(=O)NC3=O)c3ccccc3n2)CC1 [SOTRASTAURIN],Ki,[6],0.631 µM (active)
same,Ki,[7],> 1.58 µM (inactive)
same,Ki,[8],> 3.98 µM (inactive)
same,Ki,[9],> 3.16 µM (inactive)
same,Ki,Activin receptor type-1,> 3.98 µM (inactive)
same,Ki,Aurora kinase A,> 1.58 µM (inactive)
same,Ki,[10],> 3.98 µM (inactive)
same,Ki,[11],> 2.51 µM (inactive)
same,Ki,[12],> 5.01 µM (inactive)
same,Ki,[13],> 6.31 µM (inactive)
same,Ki,[14],> 3.98 µM (inactive)
same,Ki,LIM domain kinase 1,> 3.16 µM (inactive)
same,Ki,[15],> 2 µM (inactive)
same,Ki,[16],> 3.16 µM (inactive)
same,Ki,[17],> 2.51 µM (inactive)
same,Ki,[18],> 7.94 µM (inactive)
same,Ki,[19],> 1.58 µM (inactive)
same,Ki,[20],> 10 µM (inactive)
same,Ki,[21],> 7.94 µM (inactive)
same,Ki,[22],> 6.31 µM (inactive)
same,Ki,Focal adhesion kinase 1,> 6.31 µM (inactive)
same,Ki,[23],> 1.58 µM (inactive)
same,Ki,Aurora kinase B,> 5.01 µM (inactive)
same,Ki,[24],0.316 µM (active)
same,Ki,[25],> 2 µM (inactive)
same,Ki,[26],> 6.31 µM (inactive)
same,Ki,[27],> 3.16 µM (inactive)
same,Ki,[28],> 3.98 µM (inactive)
same,Ki,[29],> 3.98 µM (inactive)
same,Ki,[30],> 3.98 µM (inactive)
same,Ki,[31],> 3.16 µM (inactive)
same,Ki,[32],2.51 µM (active)
